Data reported in article PMC10786919, “Design-rules for stapled peptides with in vivo activity and their application to Mdm2/X antagonists” (Nature Communications, 2024).
In brackets after ≈: the same amount, converted by molar mass. Like-named read-outs stand apart in the source and are kept apart here. Positions of bridges follow the written chain, without caps; N, C: chain ends. Non-standard residues stand in square brackets, D forms with d. Residues, ends and D or L forms follow the SMILES beside them. Lys(N3) = [N-]=[N+]=NCCCC[C@H](N)C(=O)O; R8 = C=CCCCCCC[C@@](C)(N)C(=O)O; Cba = N[C@@H](CC1CCC1)C(=O)O; S5 = C=CCCC[C@](C)(N)C(=O)O; βAla = NCCC(=O)O

How the values were obtained:
HCT116 cells = test: Lactate dehydrogenase (LDH) release assay; assay type: cell-based
Summary of the method: (§1)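 HCT116 cells stably carrying a p53-responsive β-lactamase reporter were seeded at 8000 cells per well with a final DMSO level of 0.5%. Membrane integrity was assessed by lactate dehydrogenase release using a homogeneous fluorometric kit. Values are geometric means of at least three biological replicates.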

[1] = Lactate dehydrogenase (LDH) release assay; assay type: cell-based
Summary of the method: as §1

[2] = Experimental LogD (partition coefficient); settings: for logD: not stated, Partition Coeff LogD
in vitro = test: in vitro
Summary of the method: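 Azido-peptide permeability was read as loss of NanoBRET signal (donor 450 nm, acceptor 610 nm) after adding NanoBret618-azide at 10 μM final.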

[3] = Solubility assay (kinetic solubility, PBS pH 7); assay type: physicochemical; settings: pH 7, PBS; for solubility kinetic: pH 7, aqueous buffer, kinetic from dmso stock, read-out: Solubility
Summary of the method: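 Quantitation uses an external standard at 100 µM, prepared from 10 mM stock in acetonitrile:methanol:DMSO (10:80:10). Solubility (µM) = (peak area of sample ÷ peak area of standard) × standard concentration.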

[4] = Nanoclick permeability assay EC50
[5] = 0% FBS 4Hr, read-out: LDH: Cytotoxicity assay: EC50

Compound	EPSA (physchem) [A^2]	LDH: Cytotoxicity assay: % Effect (HCT116 cells) [%]	EC50 ([1]; LDH: Cytotoxicity assay: EC50) [nM]	logD [2]	cell entry EC50 (in vitro; [4]) [nM]	solubility kinetic [3] [µM]	Solubility [3]	LDH: Cytotoxicity assay: % Effect (HCT116 cells; 0% FBS 4Hr) [%]	LDH: Cytotoxicity assay: % Effect (HCT116 cells; 0% FBS 16Hr) [%]	EC50 [1, 5] [nM]	EC50 ([1]; 0% FBS 16Hr, read-out: LDH: Cytotoxicity assay: EC50) [nM]	cell entry EC50 (in vitro) [nM]	Partition Coeff LogD [2]	LDH: Cytotoxicity assay: % Effect (HCT116 cells; 10% FBS 4Hr) [%]	EC50 ([1]; 10% FBS 4Hr, read-out: LDH: Cytotoxicity assay: EC50) [nM]
CC(=O)N[C@@H](CCCCN=[N+]=[N-])C(=O)NCCC(=O)NCC(=O)N[C@H](C(=O)N[C@@H](Cc1ccccc1)C(=O)N[C@]1(C)CCCCCCC=CCCC[C@@](C)(C(=O)N[C@@H](CO)C(=O)N[C@@H](C)C(=O)N[C@@H](C)C(N)=O)NC(=O)[C@H](CC2CCC2)NC(=O)[C@H](CCC(N)=O)NC(=O)[C@H](C)NC(=O)[C@H](Cc2c[nH]c3ccccc23)NC(=O)[C@H](Cc2ccc(O)cc2)NC(=O)[C@H](CCC(=O)O)NC1=O)[C@@H](C)O [MP-261] (Ac-[Lys(N3)][βAla]GTF[R8]EYWAQ[Cba][S5]SAA-NH2; staple 6-13)	222	8.826	> 50600	2.62	273	89 (≈ 170 µg/mL)	–	–	–	–	–	–	–	–	–
CC(=O)N[C@@H](CCCCN=[N+]=[N-])C(=O)NCCC(=O)N[C@@H](CO)C(=O)N[C@H](C(=O)N[C@@H](Cc1ccccc1)C(=O)N[C@]1(C)CCCCCCC=CCCC[C@@](C)(C(=O)N[C@@H](CO)C(=O)N[C@@H](CO)C(=O)N[C@@H](CO)C(N)=O)NC(=O)[C@H](CC2CCC2)NC(=O)[C@H](CCC(N)=O)NC(=O)[C@H](CO)NC(=O)[C@H](Cc2c[nH]c3ccccc23)NC(=O)[C@H](Cc2ccc(O)cc2)NC(=O)[C@H](CO)NC1=O)[C@@H](C)O [MP-667] (Ac-[Lys(N3)][βAla]STF[R8]SYWSQ[Cba][S5]SSS-NH2; staple 6-13)	208	2.286	> 50600	2.5	2230	2 (≈ 3.9 µg/mL)	–	–	–	–	–	–	–	–	–
CC(=O)N[C@@H](CCCCN=[N+]=[N-])C(=O)NCCC(=O)N[C@@H](CC(C)C)C(=O)N[C@H](C(=O)N[C@@H](Cc1ccccc1)C(=O)N[C@]1(C)CCCCCCC=CCCC[C@@](C)(C(=O)N[C@@H](CO)C(=O)N(C)[C@@H](C)C(=O)N[C@@H](C)C(N)=O)NC(=O)[C@H](CC2CCC2)NC(=O)[C@H](CCC(N)=O)NC(=O)[C@H](C)NC(=O)[C@H](Cc2c[nH]c3ccccc23)NC(=O)[C@H](Cc2ccc(O)cc2)NC(=O)[C@H](CCC(=O)O)NC1=O)[C@@H](C)O [MP-3353]	202	1.89	> 50600	2.67	232	33 (≈ 65.5 µg/mL)	–	–	–	–	–	–	–	–	–
CC(C)C[C@@H]1NC(=O)[C@H](C)NC(=O)[C@H](Cc2c[nH]c3ccccc23)NC(=O)[C@H](Cc2ccc(O)cc2)NC(=O)[C@H](CCC(=O)O)NC(=O)[C@](C)(NC(=O)[C@H](Cc2ccccc2)NC(=O)[C@H](CO)NC(=O)[C@@H](NC(=O)[C@H](CO)NC(=O)[C@@H](N)CCCCN=[N+]=[N-])[C@@H](C)O)CCCCCCC=CCCC[C@@](C)(C(N)=O)NC(=O)[C@H](CC(C)C)NC1=O [MP-0178]	235	0.79	> 50600	2.59	1310	–	Poorly Behaved	–	–	–	–	–	–	–	–
CC(=O)N[C@@H](CCCCN=[N+]=[N-])C(=O)NCCC(=O)N[C@@H](CC(C)C)C(=O)N[C@H](C(=O)N[C@@H](Cc1ccccc1)C(=O)N[C@]1(C)CCCCCCC=CCCC[C@@](C)(C(N)=O)NC(=O)[C@H](CC2CCC2)NC(=O)[C@H](CCC(N)=O)NC(=O)[C@H](C)NC(=O)[C@H](Cc2c[nH]c3ccccc23)NC(=O)[C@H](Cc2ccc(O)cc2)NC(=O)[C@H](CCC(=O)O)NC1=O)[C@@H](C)O [MP-326] (Ac-[Lys(N3)][βAla]LTF[R8]EYWAQ[Cba][S5]-NH2; staple 6-13)	222	7.44	24800	2.88	215	3 (≈ 5.22 µg/mL)	–	–	–	–	–	–	–	–	–
CC(=O)N[C@@H](CCCCN=[N+]=[N-])C(=O)NCCC(=O)N[C@@H](CC(C)C)C(=O)N[C@H](C(=O)N[C@@H](Cc1ccccc1)C(=O)N[C@]1(C)CCCCCCC=CCCC[C@@](C)(C(=O)N[C@@H](CO)C(=O)N[C@@H](C)C(=O)N[C@@H](C)C(N)=O)NC(=O)[C@H](CC2CCC2)NC(=O)[C@H](CCC(N)=O)NC(=O)[C@H](C)NC(=O)[C@H](Cc2c[nH]c3cc(F)ccc23)NC(=O)[C@H](Cc2ccc(O)cc2)NC(=O)[C@H](CCC(=O)O)NC1=O)[C@@H](C)O [MP-004]	201	10.1	23900	2.9	7440	110 (≈ 219 µg/mL)	–	–	–	–	–	–	–	–	–
CC(=O)N[C@@H](CCCCN=[N+]=[N-])C(=O)NCCC(=O)N[C@@H](CC(C)C)C(=O)N[C@H](C(=O)N[C@@H](Cc1ccccc1)C(=O)N[C@]1(C)CCCCCCC=CCCC[C@@](C)(C(=O)N[C@@H](CO)C(=O)N[C@@H](C)C(=O)N[C@@H](C)C(N)=O)NC(=O)[C@H](C)NC(=O)[C@H](CCC(N)=O)NC(=O)[C@H](C)NC(=O)[C@H](Cc2c[nH]c3ccccc23)NC(=O)[C@H](Cc2ccc(O)cc2)NC(=O)[C@H](CCC(=O)O)NC1=O)[C@@H](C)O [MP-894, AZIDE-ATSP-7041 (CBA10 TO A)] (Ac-[Lys(N3)][βAla]LTF[R8]EYWAQA[S5]SAA-NH2; staple 6-13)	198	–	–	2.59	–	93 (≈ 178 µg/mL)	–	3.381	18.53	> 50000	> 50000	1330	–	–	–
CC(=O)N[C@@H](CCCCN=[N+]=[N-])C(=O)NCCC(=O)N[C@@H](CC(C)C)C(=O)N[C@H](C(=O)N[C@@H](Cc1ccccc1)C(=O)N[C@]1(C)CCCCCCC=CCCC[C@@](C)(C(=O)N[C@@H](CO)C(=O)N[C@@H](C)C(=O)N[C@@H](C)C(N)=O)NC(=O)[C@H](CC2CCC2)NC(=O)[C@H](CCC(N)=O)NC(=O)[C@H](C)NC(=O)[C@H](Cc2c[nH]c3ccccc23)NC(=O)[C@@H](CCC(=O)O)NC(=O)[C@H](C)NC1=O)[C@@H](C)O [MP-036] (Ac-[Lys(N3)][βAla]LTF[R8]A[dE]WAQ[Cba][S5]SAA-NH2; staple 6-13)	188	2.628	> 50600	–	53	–	Poorly Behaved	–	–	–	–	–	Poorly Behaved	–	–
CC(=O)N[C@@H](CCCCN=[N+]=[N-])C(=O)N[C@@H](CO)C(=O)NCC(=O)N[C@@H](CO)C(=O)N[C@@H](CC(C)C)C(=O)N[C@H](C(=O)N[C@@H](Cc1ccccc1)C(=O)N[C@]1(C)CCCCCCC=CCCC[C@@](C)(C(=O)N[C@@H](CO)C(=O)N[C@@H](C)C(=O)N[C@@H](C)C(N)=O)NC(=O)[C@H](CC2CCC2)NC(=O)[C@H](CCC(N)=O)NC(=O)[C@H](C)NC(=O)[C@H](Cc2c[nH]c3ccccc23)NC(=O)[C@H](Cc2ccc(O)cc2)NC(=O)[C@H](CCC(=O)O)NC1=O)[C@@H](C)O [MP-619]	227	11.42	> 50600	2.67	630	110 (≈ 235 µg/mL)	–	–	–	–	–	–	–	–	–
CC(=O)N[C@@H](CCCCN=[N+]=[N-])C(=O)NCCC(=O)N1CCC[C@H]1C(=O)N[C@H](C(=O)N[C@@H](Cc1ccccc1)C(=O)N[C@]1(C)CCCCCCC=CCCC[C@@](C)(C(=O)N[C@@H](CO)C(=O)N[C@@H](C)C(=O)N[C@@H](C)C(N)=O)NC(=O)[C@H](CC2CCC2)NC(=O)[C@H](CCC(N)=O)NC(=O)[C@H](C)NC(=O)[C@H](Cc2c[nH]c3ccccc23)NC(=O)[C@H](Cc2ccc(O)cc2)NC(=O)[C@H](CCC(=O)O)NC1=O)[C@@H](C)O [MP-259] (Ac-[Lys(N3)][βAla]PTF[R8]EYWAQ[Cba][S5]SAA-NH2; staple 6-13)	221	7.47	> 50600	2.67	290	90.5 (≈ 177 µg/mL)	–	–	–	–	–	–	–	–	–
CC(=O)N[C@@H](CCCCN=[N+]=[N-])C(=O)NCCC(=O)N[C@@H](CC(C)C)C(=O)N[C@H](C(=O)N[C@@H](Cc1ccccc1)C(=O)N[C@]1(C)CCCCCCC=CCCC[C@@](C)(C(=O)NCC(=O)N[C@@H](C)C(=O)N[C@@H](C)C(N)=O)NC(=O)[C@H](CC2CCC2)NC(=O)[C@H](CCC(N)=O)NC(=O)[C@H](C)NC(=O)[C@H](Cc2c[nH]c3ccccc23)NC(=O)[C@H](Cc2ccc(O)cc2)NC(=O)[C@H](CCC(=O)O)NC1=O)[C@@H](C)O [MP-798] (Ac-[Lys(N3)][βAla]LTF[R8]EYWAQ[Cba][S5]GAA-NH2; staple 6-13)	212	–	–	2.79	–	80 (≈ 155 µg/mL)	–	16.01	1.68	> 50600	–	82.9	–	16.43	> 50000
CC(=O)N[C@@H](CCCCN=[N+]=[N-])C(=O)NCCC(=O)N[C@@H](CC(C)C)C(=O)N[C@H](C(=O)N[C@@H](Cc1ccccc1)C(=O)N[C@]1(C)CCCCCCC=CCCC[C@@](C)(C(=O)N[C@@H](CO)C(=O)N[C@@H](C)C(=O)N[C@@H](C)C(N)=O)NC(=O)[C@H](CC2CCC2)NC(=O)[C@H](CCC(N)=O)NC(=O)[C@H](C)NC(=O)[C@H](Cc2c[nH]c3ccccc23)NC(=O)[C@H](Cc2ccc(O)cc2)NC(=O)[C@H](CCC(=O)O)NC1=O)C(C)C [MP-258] (Ac-[Lys(N3)][βAla]LVF[R8]EYWAQ[Cba][S5]SAA-NH2; staple 6-13)	213	-5.925	> 50600	2.93	146	79 (≈ 155 µg/mL)	–	–	–	–	–	–	–	–	–
